This is an account of results in US20080311126A1, “Antisense Oligonucleotides Directed to Ribonucleotide Reducatase R2 and Uses Thereof in Combination Therapies for the Treatment of Cancer” (Genesense Technologies, Inc, priority 2004, published 2008).

“Also recorded” adds a separate entry of the source.

What all share (type): in vivo
Data set [1] deals with Caki-1 human renal carcinoma. As to the kind of experiment: Caki-1 renal tumour xenograft in SCID mice, SEQ ID NO:1 and interferon alpha. The procedure: Cell Line: Human renal carcinoma cell line (Caki-1) was grown as monolayer culture in Minimum essential medium (α-MEM) supplemented with 10% fetal bovine serum (FEBS), 0.1 mM non-essential amino acid, 1.0 mM sodium pyruvate, 100 U/ml penicillin, 100 μg/ml streptomycin and 0.25 μg/ml amphotericin B and 2 mM L-alanyl-L-glutamine at 37° C. in an atmosphere of 5% CO2 in air. The tumour cells were routinely subcultured twice weekly by trypsin-EDTA treatment. The cells were harvested from subconfluent logarithmically growing culture by treatment with trypsin-EDTA and counted for tumour inoculation.
Tumour Inoculation: An acclimation period of at least 7 days was allowed between animal receipt and commencement of tumour inoculation. When the female SCID mice were 6-7 weeks of age (20-25 g), each mouse was subcutaneously (s.c.) injected with 5×10^6 Caki-1 human renal carcinoma cells in 0.1 ml of PBS at the right flank of the mice to induce tumour growth.
Dose-Preparation and Treatment: The dose for SEQ ID NO:1 was formulated using the following procedure. From a concentrated stock solution (usually prepared in ddH2O at a concentration of 50 mg/ml and kept at −80° C.), SEQ ID NO:1 was diluted with saline to achieve a final target concentration of 1 or 2.5 mg/ml on the first day of dosing. Enough SEQ ID NO:1 was diluted so that the compound could be administered by bolus infusion into the tail vein every other day for the duration of the experiment. Recombinant interferon alfa-2b (Intron A™) was utilized according to the dose and treatment schedules below. The treatments were started 7 days after the tumour cell inoculation when the tumour size reached an approximate volume of 125 mm^3. Each treatment group contained 10 tumour-bearing mice. Routes of administration are indicated as follows: intravenous (i.v.) and intratumoural (i:t.).
Groups and Treatments: The following treatment groups were evaluated: • 1. Saline treated group-1: saline 0.1 ml/mouse/48 hours, i.v., n=10 • 2. Saline treated group-2: saline 0.05 ml/mouse/5 days/week, i.t., n=10 • 3. […] Intron A 10^3 unit/5 days/week treated group: 10^3 unit Intron A in 0.05 ml saline, i.t., n=10 • 6. Intron A 10^5 unit/5 days/week treated group: 10^5 unit Intron A in 0.05 ml saline, i.t., n=10 • 7. SEQ ID NO:1 1 mg/kg Plus Intron A 10^3 treated group: “3+5”, n=10 • 8. SEQ ID NO:1 1 mg kg Plus Intron A 10^5 treated group: “3+6”, n=10 • 9. SEQ ID NO:1 2.5 mg/kg Plus Intron A […], n=10 • 10. SEQ ID NO:1 2.5 mg/kg Plus Intron A 10^5 treated group: “4+6”, n=10
Mice received 25 treatments with SEQ ID NO:1 and 30 treatments with Intron A. The dosing schedule for Intron A was: treatment with Intron A for 3 consecutive weeks, 1 week off, and treatment with Intron A again for another 3 consecutive weeks. The dosing schedule for SEQ ID NO:1 was treatment with SEQ ID NO:1 every other day for the duration of the experiment.
Endpoints: The effects of SEQ ID NO:1 and Intron A on tumour growth were determined. Tumour sizes were measured every week from day 7 after the tumour cell inoculation in two dimensions using a caliper, and the volume was expressed in mm^3 using the formula: V=0.5 a×b^2, where a and b are the long and short diameters of the tumour, respectively. Mean tumour volumes calculated from each measurement were then plotted in a standard graph to compare the anti-tumour efficacy to that of controls. A day after the last treatment, tumours were excised from the animals and their weights were measured.
A second independent in vivo study was conducted as described in Example 1 utilizing SCID mice (female, 6 weeks old) and Caki-1 (human renal carcinoma cell line) to test the efficacy of SEQ ID NO:1 in combination with IFN alpha Briefly, 5×10^6 Caki-1 human renal carcinoma cells in 0.1 ml of PBS were injected subcutaneously at the right flank of the mice to induce tumour growth. Treatments started on the seventh day after tumour cell injection. […]

A further data set deals with Human Liver Carcinoma. As to the kind of experiment: Tumour growth assay, human liver carcinoma in CD-1 nude mice.
Data set [2] deals with Human Pancreatic Adenocarcinoma. Put plainly: Tumour growth assay, human pancreatic adenocarcinoma in mice.
The next data set relates to Human Cervical Carcinoma. Put plainly: Tumour growth assay, human cervical carcinoma in SCID mice.
The subject of data set [3] is Human Breast Adenocarcinoma. As to the kind of experiment: Tumour growth assay, human breast adenocarcinoma in mice.
The subject of data set [4] is Caki-1 human renal carcinoma. Put plainly: Caki-1 renal tumour xenograft in SCID mice, SEQ ID NO:1 and interleukin-2. To be noted: Example 10; SEQ ID NO:1 10 mg/kg/48 hours i.v.; IL2 20000 or 5000 unit 2 times per day i.p.
Description: Cell line: Human renal carcinoma cell line (Caki-1) was grown as monolayer culture in Minimum essential medium (α-MEM) supplemented with 10% fetal bovine serum (FBS), 0.1 mM non-essential amino acid, 1.0 mM sodium pyruvate, 100 U/ml penicillin, 100 μg/ml streptomycin and 0.25 μg/ml amphotericin B and 2 mM L-alanyl-1-glutamine at 37° C. in an atmosphere of 5% CO2 in air. The tumour cells were routinely subcultured twice weekly by trypsin-EDTA treatment. The cells were harvested from subconfluent logarithmically growing culture by treatment with trypsin-EDTA and counted for tumour inoculation.
Tumour Inoculation: An acclimation period of at least 7 days was allowed between animal receipt and commencement of tumour inoculation. […]
Groups and treatments: The following treatments were evaluated in this experiment: • 1. […]
Tumour sizes were measured every week day from day 7 after the tumour cell inoculation in two dimensions using a caliper, and the volume was expressed in mm^3 using the formula: V=0.5 a×b^2, where a and b are the long and short diameters of the tumour, respectively. Mean tumour volumes calculated from each measurement were then plotted in a standard graph to compare the anti-tumour efficacy to that of controls. A day after the last treatment, tumours were excised from the animals and their weights were measured.
For another data set, the system named is Human Melanoma. As to the kind of experiment: Tumour growth assay, human melanoma in mice.
The test system of data set [5] is MDA-MB-231 human breast cancer cells. As to the kind of experiment: MDA-MB-231 breast tumour xenograft in CD-1 nude mice. A digest of the protocol:
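Female CD-1 nude mice with subcutaneous MDA-MB-231 tumours (1×10^7 cells) dosed from ~100 mm^3 (day 5): oligonucleotide 10 mg/kg i.v. bolus every other day vs scrambled control or saline, alone or with taxol (10 mg/kg i.v. weekly) or doxorubicin (5 mg/kg i.v. weekly). Tumour weight measured a day after last dose, or caliper tumour volume, 10 mice/group.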

[6] abbreviates: Human Cervical Carcinoma^2 (second entry), SCID mice, Day 17 after tumour implantation.

In the case of “GGCTAAATCGCTCCACCAAG (chemistry not given here) [SEQ ID NO: 1, antisense oligonucleotide that hybridizes to the coding region of human ribonucleotide reductase R2 mRNA]”, the “anti-tumour efficacy (tumour volume, tumour weight)” value was “significant anti-tumour efficacy” in data set [1] (Example 2, SEQ ID NO:1 1 or 2.5 mg/kg/48 hours i.v., Intron A 10^3 or 10^5 unit 5 days/week i.t.); “significant anti-tumour efficacy” in data set [1] (Example 3, SEQ ID NO:1 2.5 or 5 mg/kg every 2 days i.v., Intron 10^5 unit 5 days/week i.t.); “significant anti-tumour efficacy” in data set [1] (Example 4, oligonucleotide 2.5 mg/kg every 2 days i.v., Intron A 10^5 unit 5 days/week i.t.); “anti-tumour efficacy as monotherapies; also recorded: superior to both high and low dose IL-2 therapy” in data set [4]. Moreover, the “Inhibition of tumour weight” value with Human Liver Carcinoma is “approximately 65%”; in data set [2] (Human Pancreatic Adenocarcinoma) it was “approximately 65%”; in the data set on Human Cervical Carcinoma (Human Cervical Carcinoma^2 (first entry)), “approximately 90%”; in the data set with Human Cervical Carcinoma (setting [6]) it was “approximately 60% in SCID mice on”; in data set [3] (Day 31 after tumour implantation), “approximately 80% on Day 31 after”; in the data set with Human Melanoma it was “approximately 80%”. The “inhibition of tumour growth” value in data set [2] (up to 39 days after tumour implantation) was “Complete inhibition of tumour growth”. For the same sequence, the “Inhibition of tumour size” value is reported as “approximately 60% in SCID mice on” in the data set with Human Cervical Carcinoma (setting [6]) and “approximately 80%” in data set [3] (Human Breast Adenocarcinoma). For the same sequence, in data set [5] (MDA-MB-231 (breast), Mouse CD-1), the “Tumour weight as % of saline control” value is on record as 12.6%. The “antitumour effect (tumour weight, tumour volume)” value in data set [5] (oligonucleotide 10 mg/kg every other day i.v., taxol 10 mg/kg, doxorubicin 5 mg/kg i.v. once a week) is given as “delay of tumour growth compared to saline control in all three experiments; also recorded: superior to the inhibitory effects observed with taxol or doxorubicin alone”.
